Reference: PubChem BioAssay (NCI)
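Each compound was tested at five concentrations against cells in 96-well plates for 48 hours. TGI: total growth inhibition.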

Columns and labels:
Test in all cases: NCI tumour cell line growth inhibition, 48 h
A498 renal = system: A498 renal
CAKI-1 renal = system: CAKI-1 renal
CCRF-CEM leukemia = system: CCRF-CEM leukemia
COLO 205 colon = system: COLO 205 colon
EKVX NSCLC = system: EKVX NSCLC
HCT-116 colon = system: HCT-116 colon
HL-60(TB) leukemia = system: HL-60(TB) leukemia
HT29 colon = system: HT29 colon
MDA-MB-435 = system: MDA-MB-435
NCI-H226 lung = system: NCI-H226 lung
OVCAR-3 ovarian = system: OVCAR-3 ovarian
PC-3 prostate = system: PC-3 prostate
SK-MEL-28 melanoma = system: SK-MEL-28 melanoma
SNB-75 CNS = system: SNB-75 CNS
U251 CNS = system: U251 CNS

Compound | TGI (A498 renal) | TGI (CAKI-1 renal) | TGI (CCRF-CEM leukemia) | TGI (COLO 205 colon) | TGI (EKVX NSCLC) | TGI (HCT-116 colon) | TGI (HL-60(TB) leukemia) | TGI (HT29 colon) | TGI (MDA-MB-435) | TGI (NCI-H226 lung) | TGI (OVCAR-3 ovarian) | TGI (PC-3 prostate) | TGI (SK-MEL-28 melanoma) | TGI (SNB-75 CNS) | TGI (U251 CNS)
NC(N)=N/N=C/c1c(-c2ccc([N+](=O)[O-])cc2)nc2n1CCS2 | 42 µM | 34.4 µM | 11.8 µM | 7.8 µM | 37.8 µM | 23 µM | 25.1 µM | 31 µM | 43.5 µM | 42.9 µM | 41.3 µM | 27.7 µM | 34.8 µM | 14.5 µM | 6.49 µM
N#Cc1c(Cl)c2ccccc2n2c1nc1ccccc12 | > 100 µM | 51.4 µM | 47.2 µM | 41.9 µM | 70 µM | 33.5 µM | 31 µM | 35.7 µM | > 100 µM | 59 µM | > 100 µM | > 100 µM | > 100 µM | > 100 µM | > 100 µM
[O-][n+]1onc(-c2ccccc2)c1CN1CCOCC1 | > 100 µM | > 100 µM | > 100 µM | > 100 µM | > 100 µM | > 100 µM | > 100 µM | > 100 µM | > 100 µM | > 100 µM | > 100 µM | > 100 µM | > 100 µM | > 100 µM | > 100 µM
COC(=O)C1=C(\c2ccccc2)c2ccccc2C(=O)N(C2CCCCC2)/C=C\1 | > 100 µM | 54.6 µM | 75.5 µM | 28.8 µM | > 100 µM | 64 µM | > 100 µM | > 100 µM | 45.1 µM | 81.5 µM | 79.4 µM | > 100 µM | 39.8 µM | > 100 µM | 63.1 µM
COc1cc(NCc2ccc3nc(OC)c(OC)nc3c2)cc(OC)c1OC | > 100 µM | > 100 µM | > 100 µM | > 100 µM | > 100 µM | > 100 µM | > 100 µM | > 100 µM | > 100 µM | > 100 µM | > 100 µM | > 100 µM | > 100 µM | > 100 µM | > 100 µM
COc1ccc(C2=C(N)c3c(OC)cccc3C2=O)cc1 | > 100 µM | > 100 µM | > 100 µM | > 100 µM | > 100 µM | > 100 µM | > 100 µM | > 100 µM | > 100 µM | > 100 µM | > 100 µM | > 100 µM | > 100 µM | > 100 µM | > 100 µM
CN(/N=C/c1ccccn1)C1=NCCCCN1 | > 100 µM | > 100 µM | > 100 µM | > 100 µM | > 100 µM | > 100 µM | > 100 µM | > 100 µM | > 100 µM | > 100 µM | > 100 µM | > 100 µM | > 100 µM | > 100 µM | > 100 µM
